What was measured:
Test in all cases: stopped-flow CO2 hydrase assay
Assay type in all cases: biochemical
[1] = target: T1, hCA I (Homo sapiens, UniProt P00915); conditions: read-out: KI (nM) ^a / hCA I (α-CA)
T1 construct: gene CA1; recombinant, obtained in-house; cytosolic alpha-CA
Excerpt: stopped-flow CO2 hydrase assay on hCA I

[2] = target: MtCA1 (Mycobacterium tuberculosis, UniProt P9WPJ7); conditions: read-out: KI (nM) ^a / MtCA1 (β-CA)
[3] = target: T2, MtCA3 (Mycobacterium tuberculosis, UniProt P96878); conditions: CO2 […]; […] TRIS pH […]; […] Na2SO4; […] h preincubation at room temperature; read-out: KI (nM) ^a / MtCA3 (β-CA)
T2 construct: gene Rv3273
Excerpt: stopped-flow CO2 hydrase assay on MtCA3

[4] = target: T3, hCA II (Homo sapiens, UniProt P00918); conditions: read-out: KI (nM) ^a / hCA II (α-CA)
T3 construct: gene CA2; recombinant, obtained in-house; cytosolic alpha-CA
Excerpt: stopped-flow CO2 hydrase assay on hCA II

[5] = target: T4, hCA VII (Homo sapiens, UniProt P43166); conditions: read-out: KI (nM) ^a / hCA VII (α-CA)
T4 construct: gene CA7; recombinant, obtained in-house; cytosolic alpha-CA
Excerpt: stopped-flow CO2 hydrase assay on hCA VII

[6] = target: MtCA2 (Mycobacterium tuberculosis, UniProt P9WPJ9); conditions: read-out: KI (nM) ^a / MtCA2 (β-CA)
Chain of MtCA2 (P9WPJ9 whole entry, looked up): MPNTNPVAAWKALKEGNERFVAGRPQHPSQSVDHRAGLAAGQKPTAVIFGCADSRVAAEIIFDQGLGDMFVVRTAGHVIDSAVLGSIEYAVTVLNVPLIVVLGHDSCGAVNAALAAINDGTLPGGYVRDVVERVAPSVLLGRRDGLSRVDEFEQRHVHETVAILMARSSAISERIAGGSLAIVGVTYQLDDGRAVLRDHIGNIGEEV

Chain of MtCA1 (P9WPJ7 2-163): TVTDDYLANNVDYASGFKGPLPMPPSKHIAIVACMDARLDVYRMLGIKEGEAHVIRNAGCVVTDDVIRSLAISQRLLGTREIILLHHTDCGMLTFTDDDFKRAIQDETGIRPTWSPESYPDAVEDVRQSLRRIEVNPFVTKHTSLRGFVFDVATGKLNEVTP
T1 sequence (P00915 2-261): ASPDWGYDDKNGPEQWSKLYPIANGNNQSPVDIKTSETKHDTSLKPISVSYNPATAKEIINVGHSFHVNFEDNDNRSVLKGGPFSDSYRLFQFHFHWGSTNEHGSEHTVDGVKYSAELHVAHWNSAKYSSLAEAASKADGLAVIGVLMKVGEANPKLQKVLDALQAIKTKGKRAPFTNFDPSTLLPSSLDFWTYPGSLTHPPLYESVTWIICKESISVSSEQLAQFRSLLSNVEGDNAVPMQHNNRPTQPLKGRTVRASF
T4 sequence (P43166 whole entry): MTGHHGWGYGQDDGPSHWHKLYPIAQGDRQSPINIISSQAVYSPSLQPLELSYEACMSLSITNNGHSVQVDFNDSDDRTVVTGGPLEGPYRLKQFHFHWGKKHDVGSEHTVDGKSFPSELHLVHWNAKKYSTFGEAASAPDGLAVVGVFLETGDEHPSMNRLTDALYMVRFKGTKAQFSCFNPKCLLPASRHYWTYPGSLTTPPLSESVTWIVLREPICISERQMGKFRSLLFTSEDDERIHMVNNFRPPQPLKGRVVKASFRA
T2 sequence (P96878 555-764 limits assumed): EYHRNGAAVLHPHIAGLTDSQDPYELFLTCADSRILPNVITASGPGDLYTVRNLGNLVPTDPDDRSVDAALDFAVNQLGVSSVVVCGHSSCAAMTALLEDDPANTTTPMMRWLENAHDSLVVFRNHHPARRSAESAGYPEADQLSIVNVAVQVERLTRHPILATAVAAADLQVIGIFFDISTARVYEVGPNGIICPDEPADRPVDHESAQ

Row | SMILES | Ki [1] [nM] | Ki [2] [nM] | Ki [3] [nM] | Ki [4] [nM] | Ki [5] [nM] | Ki [6] [nM]
1 | NS(=O)(=O)c1ccc(NC(=S)NC(=O)/C=C/c2ccccc2)cc1 [3k, N-((4-Sulfamoylphenyl)carbamothioyl)cinnamamide] | 47.9 | 224 | 447 | 9.2 | 3.1 | 8.1
2 | NS(=O)(=O)c1ccc(NC(=S)NC(=O)C2CC2)cc1 [3d, N-((4-Sulfamoylphenyl)carbamothioyl)cyclopropanecarboxamide] | 87.4 | 95.2 | 6280 | 384 | 1.9 | 4.2
3 | CCCC(=O)NC(=S)Nc1ccc(S(N)(=O)=O)cc1 [3c, N-((4-Sulfamoylphenyl)carbamothioyl)butyramide] | 50.3 | 784 | 9400 | 7.7 | 3 | 7.6
4 | NS(=O)(=O)c1ccc(NC(=S)NC(=O)Cc2cccc3ccccc23)cc1 [3i, 2-(Naphthalen-1-yl)-N-((4-sulfamoylphenyl)carbamothioyl)acetamide] | 60.5 | 962 | 2130 | 9.7 | 2.6 | 4.6
5 | CCCCCC(=O)NC(=S)Nc1ccc(S(N)(=O)=O)cc1 [3g, N-((4-sulfamoylphenyl)carbamothioyl)hexanamide] | 13.3 | 3510 | 719 | 46.5 | 3.2 | 3.4
6 | NS(=O)(=O)c1ccc(NC(=S)NC(=O)C2CCCCC2)cc1 [3h, N-((4-Sulfamoylphenyl)carbamothioyl)cyclohexanecarboxamide] | 67.8 | 6670 | 7140 | 21.7 | 2.2 | 8.4
7 | NS(=O)(=O)c1ccc(NC(=S)NC(=O)c2ccc([N+](=O)[O-])cc2)cc1 [3l, 4-nitro-N-((4-sulfamoylphenyl)carbamothioyl)benzamide] | 87.6 | 868 | 5280 | 6.8 | 2.5 | 4.8
8 | CCC(=O)NC(=S)Nc1ccc(S(N)(=O)=O)cc1 [3b, N-((4-Sulfamoylphenyl)carbamothioyl)propionamide] | 58.3 | 252 | 806 | 35.9 | 2.8 | 5.4
9 | CC(C)CC(=O)NC(=S)Nc1ccc(S(N)(=O)=O)cc1 [3f, 3-methyl-N-((4-sulfamoylphenyl)carbamothioyl)butanamide] | 36.4 | 782 | 8390 | 5.3 | 2.1 | 21.1
10 | CC(=O)NC(=S)Nc1ccc(S(N)(=O)=O)cc1 [3a, N-((4-Sulfamoylphenyl)carbamothioyl)acetamide] | 85.2 | 897 | 610 | 78.7 | 13.5 | 4.4
11 | C/C=C/C(=O)NC(=S)Nc1ccc(S(N)(=O)=O)cc1 [3j, N-((4-Sulfamoylphenyl)carbamothioyl)but-2-enamide] | 69.4 | 2420 | 851 | 64.6 | 10.3 | 9.2
12 | CC(C)C(=O)NC(=S)Nc1ccc(S(N)(=O)=O)cc1 [3e, N-((4-sulfamoylphenyl)carbamothioyl)isobutyramide] | 72.7 | 369 | 3670 | 8.9 | 1.1 | 57.1

— paper PMC10222120, “Inhibition Studies on Human and Mycobacterial Carbonic Anhydrases with N-((4-Sulfamoylphenyl)carbamothioyl) Amides” (Molecules, 2023)
